Structures are written as SMILES.

This passage reports IC50 results from US9255100B2 (BAYER INTELLECTUAL PROPERTY GMBH, priority 2010, dated 2016).

The target of this test is T1, N-terminally GST-tagged human full length recombinant Mps-1 kinase (Homo sapiens, UniProt P33981).
T1 construct: N-terminally GST-tagged human full length recombinant Mps-1 kinase; purchased Invitrogen, Karslruhe, Germany PV4071
T1 sequence (P33981 1-857): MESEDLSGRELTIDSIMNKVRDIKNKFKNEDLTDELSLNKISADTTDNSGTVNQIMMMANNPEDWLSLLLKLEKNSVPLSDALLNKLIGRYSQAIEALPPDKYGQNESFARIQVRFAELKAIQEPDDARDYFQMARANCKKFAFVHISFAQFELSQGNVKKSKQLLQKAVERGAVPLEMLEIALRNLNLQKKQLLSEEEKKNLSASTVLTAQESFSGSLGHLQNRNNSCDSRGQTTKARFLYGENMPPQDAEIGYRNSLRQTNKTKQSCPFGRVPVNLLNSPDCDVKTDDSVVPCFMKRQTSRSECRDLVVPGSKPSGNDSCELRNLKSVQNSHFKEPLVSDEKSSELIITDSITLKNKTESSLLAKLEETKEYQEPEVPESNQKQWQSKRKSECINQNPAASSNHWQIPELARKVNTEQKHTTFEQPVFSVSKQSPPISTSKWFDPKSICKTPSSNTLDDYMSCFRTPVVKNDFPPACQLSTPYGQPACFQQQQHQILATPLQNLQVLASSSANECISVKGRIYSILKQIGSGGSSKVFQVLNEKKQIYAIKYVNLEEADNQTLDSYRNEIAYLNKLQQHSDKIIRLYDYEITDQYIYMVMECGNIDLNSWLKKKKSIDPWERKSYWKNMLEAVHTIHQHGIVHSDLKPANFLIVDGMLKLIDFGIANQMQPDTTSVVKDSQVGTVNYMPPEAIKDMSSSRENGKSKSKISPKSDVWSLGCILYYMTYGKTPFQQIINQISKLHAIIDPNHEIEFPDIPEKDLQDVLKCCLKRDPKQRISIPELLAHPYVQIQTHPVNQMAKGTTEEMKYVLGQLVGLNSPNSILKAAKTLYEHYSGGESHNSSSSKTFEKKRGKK
Put plainly: Mps-1 kinase assay (TR-FRET). The format is biochemical. Conditions: Mps1 IC50 [nM], 10 μM ATP, 1 μM peptide substrate, 60 min at 22° C. The essentials:
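Next, Eu-labelled anti-phospho(Ser/Thr) antibody and SA-XLent bind for 1 h at 22° C. Finally, energy transfer quantifies phosphorylated product.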
On the technique in general: TR-FRET usually uses a lanthanide donor and a delayed reading to cut background.
With `Cc1cc(-c2cnc3c(NCC(C)(C)O)cc(Oc4ccc(Cl)cc4)nn23)ccc1C(=O)NC1CC1` [Example 90, 4-{6-(4-Chlorophenoxy)-8-[(2-hydroxy-2-methylpropyl)amino]imidazo[1,2-b]pyridazin-3-yl}-N-cyclopropyl-2-methylbenzamide], the IC50 (in general, the concentration needed to halve the response being measured) is 0.5 nM.
Take `CSc1cccc(Oc2cc(NCC(C)(C)O)c3ncc(-c4ccc(C(=O)NC5CC5)c(C)c4)n3n2)c1F` [Example 458, N-cyclopropyl-4-{6-[2-fluoro-3-(methylsulfanyl)phenoxy]-8-[(2-hydroxy-2-methylpropyl)amino]imidazo[1,2-b]pyridazin-3-yl}-2-methylbenzamide]: the 50% inhibitory concentration (IC50) was 1.1 nM.
With `Cc1cc(-c2cnc3c(NCCC(F)(F)F)cc(Oc4ccc(OC(C)C)cc4)nn23)ccc1C(=O)NC1CC1` [Example 257, N-cyclopropyl-4-{6-(4-isopropoxyphenoxy)-8-[(3,3,3-trifluoropropyl)amino]imidazo[1,2-b]pyridazin-3-yl}-2-methylbenzamide], the IC50 was 0.4 nM.
`Cc1cc(-c2cnc3c(NCC(C)(C)O)cc(-c4ccccc4CF)nn23)ccc1C(=O)NC1CC1` [Example 222, N-cyclopropyl-4-{6-[2-(fluoromethyl)phenyl]-8-[(2-hydroxy-2-methylpropyl)amino]imidazo[1,2-b]pyridazin-3-yl}-2-methylbenzamide]: the half-inhibitory concentration (IC50) amounted to 2.1 nM.
As to `CC(C)CNc1cc(-c2ccncc2)nn2c(-c3ccc(C(=S)NC4CC4)cc3)cnc12` [Example 13, N-cyclopropyl-4-[8-(isobutylamino)-6-(pyridin-4-yl)imidazo[1,2-b]pyridazin-3-yl]benzenecarbothioamide], the IC50 came to 1.8 nM.
As for `CNC(=O)c1ccc(-c2cnc3c(NCCOC)cc(Oc4cccc(F)c4F)nn23)cc1C` [Example 581, 4-{6-(2,3-difluoro-phenoxy)-8-[(2-methoxyethyl)a-mino]imidazo[1,2-b]pyridazin-3-yl}-N,2-dimethylbenzamide], the IC50 was less than 1 nM.
For the compound `Cc1cc(-c2cnc3c(NC[C@H]4CC[S@+]([O-])CC4)cc(Oc4cccnc4)nn23)ccc1C(=O)NC1CC1` [Example 296C, N-cyclopropyl-2-methyl-4-[8-({[(trans)-1-oxidotetrahydro-2H-thiopyran-4-yl]methyl}amino)-6-(pyridin-3-yloxy)imidazo[1,2-b]pyridazin-3-yl]benzamide], the IC50 is 0.2 nM.
As to `Cc1cc(-c2cnc3c(NCCC(F)(F)F)cc(Sc4cccc(O)c4)nn23)ccc1C(=O)NC1CC1` [Example 238, N-cyclopropyl-4-{6-[(3-hydroxyphenyl)sulfanyl]-8-[(3,3,3-trifluoropropyl)amino]imidazo[1,2-b]pyridazin-3-yl}-2-methylbenzamide], the IC50 is less than 0.1 nM.
For `Cc1cc(-c2cnc3c(NCC4CCSCC4)cc(Oc4ccccc4F)nn23)ccc1C(=O)NC1CC1` [Example 283, N-cyclopropyl-4-{6-(2-fluorophenoxy)-8-[(tetrahydro-2H-thiopyran-4-ylmethyl)amino]imidazo[1,2-b]pyridazin-3-yl}-2-methylbenzamide], the IC50 amounted to 0.3 nM.
As to `Cc1cc(F)cc(Sc2cc(NCCC(F)(F)F)c3ncc(-c4ccc(C(=O)NC5CC5)c(C)c4)n3n2)c1` [Example 79, N-cyclopropyl-4-{6-[(3-fluoro-5-methylphenyl)sulfanyl]-8-[(3,3,3-trifluoropropyl)amino]imidazo[1,2-b]pyridazin-3-yl}-2-methylbenzamide], the IC50 was determined as 0.7 nM.
As for `CC(C)CNc1cc(-c2ccc(NC(=O)N(C)C)cc2)nn2c(-c3ccc(C(=O)NC4CC4)cc3)cnc12` [Example 150, N-cyclopropyl-4-(6-{4-[(dimethylcarbamoyl)amino]phenyl}-8-[(2-methylpropyl)amino]imidazo[1,2-b]pyridazin-3-yl)benzamide], the IC50 turned out to be 3.7 nM.
As to `CNC(=O)c1ccc(-c2cnc3c(NCCN4CCOCC4)cc(Oc4ccc(F)c(F)c4)nn23)cc1C` [Example 562, 4-[6-(3,4-difluorophenoxy)-8-{[2-(morpholin-4-yl)ethyl]amino}imidazo[1,2-b]pyridazin-3-yl]-N,2-dimethylbenzamide], the IC50 was found to be 2.7 nM.
`Cc1cc(-c2cnc3c(NCCC(N)=O)cc(Oc4cccc(F)c4)nn23)ccc1C(=O)NC1CC1` [Example 549, 4-{8-[(3-amino-3-oxopropyl)amino]-6-(3-fluorophenoxy)imidazo[1,2-b]pyridazin-3-yl}-N-cyclopropyl-2-methyl-benzamide]: the IC50 is 0.2 nM.
For the compound `Cc1ccc(Cc2cc(NCCC(F)(F)F)c3ncc(-c4ccc(C(=O)NC5CC5)c(C)c4)n3n2)cc1F` [Example 484, N-cyclopropyl-4-{6-(3-fluoro-4-methylbenzyl)-8-[(3,3,3-tri-fluoropropyl)amino]imidazo [1,2-b]pyridazin-3-yl}-2-methylbenzamide], the IC50 was 0.3 nM.
Take `Cc1cc(-c2cnc3c(NCCC(F)(F)F)cc(Oc4cccc5c4CCN(C)C5)nn23)ccc1C(=O)NC1CC1` [Example 469, N-cyclopropyl-2-methyl-4-{6-[(2-methyl-1,2,3,4-tetrahydroisoquinolin-5-yl)oxy]-8-[(3,3,3-trifluoropropyl)amino]imidazo[1,2-b]pyridazin-3-yl}benzamide]: the IC50 was determined as 1.7 nM.
Turning to `CNc1cc(Oc2ccc(OC)c(F)c2)nn2c(-c3ccc(C(=O)NC4CC4)c(C)c3)cnc12` [Example 535, N-cyclopropyl-4-[6-(3-fluoro-4-methoxy-phenoxy)-8-(methyl-amino)imidazo[1,2-b]pyridazin-3-yl]-2-methylbenzamide], the IC50 worked out at 0.1 nM.
Turning to `Cc1cc(-c2cnc3c(NCC(C)(C)O)cc(Sc4nncn4C)nn23)ccc1C(=O)NC1CC1` [Example 413, N-cyclopropyl-4-{8-[(2-hydroxy-2-methylpropyl)amino]-6-[(4-methyl-4H-1,2,4-triazol-3-yl)sulfanyl]imidazo[1,2-b]pyridazin-3-yl}-2-methylbenzamide], the IC50 was determined as 45.7 nM.
The figure for `Cc1cc(Oc2cc(NCC(C)(C)O)c3ncc(-c4ccc(C(=O)NC5CC5)c(C)c4)n3n2)n[nH]1` [Example 415, N-cyclopropyl-4-{8-[(2-hydroxy-2-methylpropyl)amino]-6-[(5-methyl-1H-pyrazol-3-yl)oxy]imidazo[1,2-b]pyridazin-3-yl}-2-methylbenzamide] is 8.2 nM.
Turning to `CCNC(=O)c1ccc(-c2cnc3c(NCCOC)cc(Oc4ccc(OC)c(F)c4)nn23)cc1C` [Example 610, N-ethyl-4-{6-(3-fluoro-4-methoxyphenoxy)-8-[(2-methoxyethyl)a-mino]imidazo[1,2-b]pyridazin-3-yl}-2-methylbenzamide], the IC50 is less than 1 nM.
Turning to `CC(C)CNc1cc(-c2cccc(CO)c2)nn2c(-c3ccc(C(=O)NC4CC4)cc3)cnc12` [Example 103, N-cyclopropyl-4-{6-[3-(hydroxymethyl)phenyl]-8-[(2-methylpropyl)amino]imidazo[1,2-b]pyridazin-3-yl}benzamide], the IC50 is less than 1 nM.
Take `COc1cccc(Sc2cc(NCC(C)(C)O)c3ncc(-c4ccc(C(=O)NC5CC5)c(C)c4)n3n2)c1` [Example 61B, N-cyclopropyl-4-{8-[(2-hydroxy-2-methylpropyl)amino]-6-[(3-methoxyphenyl)sulfanyl]imidazo[1,2-b]pyridazin-3-yl}-2-methylbenzamide]: the IC50 was 0.3 nM.
The figure for `CCNC(=O)c1ccc(-c2cnc3c(NCC4CCOCC4)cc(Oc4ccc(OC)cc4F)nn23)cc1C` [Example 598, N-ethyl-4-{6-(2-fluoro-4-methoxyphenoxy)-8-[(tetrahydro-2H-pyran-4-ylmethyl)a-mino]imidazo[1,2-b]pyridazin-3-yl}-2-methylbenzamide] is less than 1 nM.
With `Cc1cc(-c2cnc3c(NCCC(F)(F)F)cc(Nc4ccncc4O)nn23)ccc1C(=O)NC1CC1` [Example 481, N-cyclopropyl-4-{6-[(3-hydroxypyridin-4-yl)amino]-8-[(3,3,3-tri-fluoropropyl)amino]imidazo[1,2-b]pyridazin-3-yl}-2-methylbenzamide] the figure was 3.1 nM; with `Cc1cc(-c2cnc3c(NCCC(F)(F)F)cc(Oc4ccc5ncccc5c4)nn23)ccc1C(=O)NC1CC1` [Example 169, N-cyclopropyl-2-methyl-4-{6-(quinolin-6-yloxy)-8-[(3,3,3-trifluoro-propyl)amino]imidazo[1,2-b]pyridazin-3-yl}benzamide], 0.1 nM.
`Cc1cc(-c2cnc3c(NCC(C)(C)O)cc(-c4cccc(CO)c4)nn23)ccc1C(=O)NC1CC1` [Example 153, N-cyclopropyl-4-{6-[3-(hydroxymethyl)phenyl]-8-[(2-hydroxy-2-methylpropyl)amino]imidazo[1,2-b]pyridazin-3-yl}-2-methylbenzamide]: the IC50 came out at 3.6 nM.
